According to patent US10125139B2, “Pesticidally active polycyclic derivatives with sulfur substituted five-membered ring heterocycles” (Syngenta Participations AG, priority 2015, dated 2018):

How the values were obtained:
[1] = test system: Bemisia tabaci (Cotton White Fly); experiment: Example B1: Bemisia tabaci feeding/contact activity, cotton leaf discs; format: in vivo; conditions: foliar, 144 h, application rate of 200 ppm, 6 days after incubation, adult white flies
Method: Example B1: Bemisia tabaci (Cotton White Fly): Feeding/Contact Activity
Cotton leaf discs were placed on agar in 24-well microtiter plates and sprayed with aqueous test solutions prepared from 10,000 ppm DMSO stock solutions. After drying the leaf discs were infested with adult white flies. The samples were checked for mortality 6 days after incubation.

[2] = test system: Diabrotica balteata (Corn Root Worm); experiment: Example B2: Diabrotica balteata, sprayed maize sprouts, L2 larvae; format: in vivo; conditions: for percent effect (mortality or growth inhibition) at 200 ppm: Diabrotica balteata, 96 h, application rate of 200 ppm, 4 days after infestation, L2 larvae, read-out: effect in at least one of the two categories (mortality or growth inhibition)
Method: Example B2: Diabrotica balteata (Corn Root Worm)
Maize sprouts placed onto an agar layer in 24-well microtiter plates were treated with aqueous test solutions prepared from 10,000 ppm DMSO stock solutions by spraying. After drying, the plates were infested with L2 larvae (6 to 10 per well). The samples were assessed for mortality and growth inhibition in comparison to untreated samples 4 days after infestation. The following compounds gave an effect of at least 80% in at least one of the two categories (mortality or growth inhibition) at an application rate of 200 ppm:
(§1) Insecticidal action against Diabrotica balteata (Corn root worm), Plutella xylostella (Diamond black moth), and Spodoptera littoralis (Egyptian cotton leaf worm). The tests were carried out as described in biological examples B2, B8 and B9, respectively, with the larval feeding/contact activity (mortality only) being reported as Breakpoint (BP80) values in parts per million (i.e. the lowest concentration which gives 80% larval mortality).

[3] = test system: Euschistus heros (Neotropical Brown Stink Bug); experiment: Example B3: Euschistus heros, sprayed soybean leaves, N2 nymphs; format: in vivo; conditions: 120 h, application rate of 200 ppm, 5 days after infestation, read-out: effect in at least one of the two categories (mortality or growth inhibition)
Method: Example B3: Euschistus heros (Neotropical Brown Stink Bug)
Soybean leaves on agar in 24-well microtiter plates were sprayed with aqueous test solutions prepared from 10,000 ppm DMSO stock solutions. After drying the leaves were infested with N2 nymphs. The samples were assessed for mortality and growth inhibition in comparison to untreated samples 5 days after infestation. The following compounds gave an effect of at least 80% in at least one of the two categories (mortality or growth inhibition) at an application rate of 200 ppm: […]

[4] = test system: Frankliniella occidentalis (Western Flower thrips); experiment: Example B4: Frankliniella occidentalis feeding/contact activity, sunflower leaf discs; format: in vivo; conditions: foliar, 168 h, application rate of 200 ppm, 7 days after infestation, population of mixed ages
Method: Example B4: Frankliniella occidentalis (Western Flower thrips): Feeding/Contact Activity
(§2) Sunflower leaf discs were placed on agar in 24-well microtiter plates and sprayed with aqueous test solutions prepared from 10,000 DMSO stock solutions. After drying the leaf discs were infested with a Frankliniella population of mixed ages. The samples were assessed for mortality 7 days after infestation.

[5] = test system: Myzus persicae (Green Peach Aphid); experiment: Example B5: Myzus persicae feeding/contact activity, sunflower leaf discs; format: in vivo; conditions: foliar, 144 h, application rate of 200 ppm, 6 days after infestation
Method: Example B5: Myzus persicae (Green Peach Aphid): Feeding/Contact Activity
Sunflower leaf discs were placed onto agar in a 24-well microtiter plate and sprayed with aqueous test solutions prepared from 10,000 ppm DMSO stock solutions. After drying, the leaf discs were infested with an aphid population of mixed ages. The samples were assessed for mortality 6 days after infestation.

[6] = test system: Plutella xylostella (Diamond Back Moth); experiment: Example B8: Plutella xylostella, artificial diet, L2 larvae; format: in vivo; conditions: for percent effect (mortality or growth inhibition) at 200 ppm: Plutella xylostella, 120 h, application rate of 200 ppm, 5 days after infestation, L2 larvae, read-out: effect in at least one of the two categories (mortality or growth inhibition)
Method: Example B8: Plutella xylostella (Diamond Back Moth)
24-well microtiter plates with artificial diet were treated with aqueous test solutions prepared from 10,000 ppm DMSO stock solutions by pipetting. After drying, the plates were infested with L2 larvae (10 to 15 per well). The samples were assessed for mortality and growth inhibition in comparison to untreated samples 5 days after infestation. The following compounds gave an effect of at least 80% in at least one of the two categories (mortality or growth inhibition) at an application rate of 200 ppm:
as §1

[7] = test system: Spodoptera littoralis (Egyptian Cotton Leaf Worm); experiment: Example B9: Spodoptera littoralis, cotton leaf discs, L1 larvae; format: in vivo; conditions: for percent control (mortality, anti-feedant effect or growth inhibition) at 200 ppm: Spodoptera littoralis, foliar, 72 h, application rate of 200 ppm, 3 days after infestation, L1 larvae
Method: Example B9: Spodoptera littoralis (Egyptian Cotton Leaf Worm)
Cotton leaf discs were placed onto agar in 24-well microtiter plates and sprayed with aqueous test solutions prepared from 10,000 ppm DMSO stock solutions. After drying the leaf discs were infested with five L1 larvae. The samples were assessed for mortality, anti-feeding effect, and growth inhibition in comparison to untreated samples 3 days after infestation. Control of Spodoptera littoralis by a test sample is given when at least one of the categories mortality, anti-feedant effect, and growth inhibition is higher than the untreated sample.
as §1

[8] = test system: Spodoptera littoralis (Egyptian Cotton Leaf Worm); experiment: Example B10: Spodoptera littoralis systemic activity, lettuce grown on treated agar; format: in vivo; conditions: 144 h, test rate of 12.5 ppm, 6 days after infestation, read-out: effect in at least one of the three categories (mortality, anti-feeding, or growth inhibition)
Description: Example B10: Spodoptera littoralis (Egyptian Cotton Leaf Worm) Systemic Activity
Test compounds were applied by pipette from 10,000 ppm DMSO stock solutions into 24-well plates and mixed with agar. Lettuce seeds were placed onto the agar and the multi well plate was closed by another plate which contained also agar. After 7 days the compound was absorbed by the roots and the lettuce grew into the lid plate. The lettuce leaves were then cut off into the lid plate. Spodoptera eggs were pipetted through a plastic stencil onto a humid gel blotting paper and the lid plate was closed with it. The samples were assessed for mortality, anti-feedant effect and growth inhibition in comparison to untreated samples 6 days after infestation. The following compounds gave an effect of at least 80% in at least one of the three categories (mortality, anti-feeding, or growth inhibition) at a test rate of 12.5 ppm: […]

[9] = test system: Thrips tabaci (Onion thrips); experiment: Example B12: Thrips tabaci feeding/contact activity, sunflower leaf discs; format: in vivo; conditions: foliar, 144 h, application rate of 200 ppm, 6 days after infestation
Method: Example B12: Thrips tabaci (Onion thrips) Feeding/Contact Activity
as §2, with “10,000 ppm” for “10,000”, “thrips” for “Frankliniella”, “6” for “7”

[10] = test system: Myzus persicae (Green Peach Aphid); experiment: Example B6: Myzus persicae systemic activity, pea seedling roots in test solution; format: in vivo; conditions: 144 h, test rate of 24 ppm, 6 days after placing seedlings into test solutions
Method: Example B6: Myzus persicae (Green Peach Aphid). Systemic Activity
Roots of pea seedlings infested with an aphid population of mixed ages were placed directly into aqueous test solutions prepared from 10,000 DMSO stock solutions. The samples were assessed for mortality 6 days after placing seedlings into test solutions.

Structure (SMILES)	mortality at 200 ppm [1] [%]	percent effect (mortality or growth inhibition) at 200 ppm [2] [%]	percent effect (mortality or growth inhibition) at 200 ppm [3] [%]	mortality at 200 ppm [4] [%]	mortality at 200 ppm [5] [%]	percent effect (mortality or growth inhibition) at 200 ppm [6] [%]	percent control (mortality, anti-feedant effect or growth inhibition) at 200 ppm [7] [%]	percent effect (mortality, anti-feeding or growth inhibition) at 12.5 ppm [8] [%]	mortality at 200 ppm [9] [%]	melting point [°C]	also measured
CCS(=O)(=O)c1cc(-c2ccc(Cl)cc2)sc1-c1nc2cc(C(F)(F)F)nnc2n1C [Example P-18, 6-[5-(4-chlorophenyl)-3-ethylsulfonyl-2-thienyl]-7-methyl-3-(trifluoromethyl)imidazo[4,5-c]pyridazine]	≥ 80	≥ 80	≥ 80	≥ 80	≥ 80	≥ 80	≥ 80	≥ 80	≥ 80		
CCS(=O)(=O)c1cc(-c2ccc(C(F)(F)F)cc2)sc1-c1nc2cc(C(F)(F)F)ncc2n1C [Example P-1, 2-[3-ethylsulfonyl-5-[4-(trifluoromethyl)phenyl]-2-thienyl]-3-methyl-6-(trifluoromethyl)imidazo[4,5-c]pyridine]		≥ 80	≥ 80		≥ 80	≥ 80	≥ 80	≥ 80			BP80 (Breakpoint, lowest concentration which gives 80% larval mortality) Diabrotica balteata ([2]; larval feeding/contact activity, mortality only, test as in B2): 0.8 ppm; BP80 (Breakpoint, lowest concentration which gives 80% larval mortality) Plutella xylostella ([6]; larval feeding/contact activity, mortality only, test as in B8): 0.8 ppm; BP80 (Breakpoint, lowest concentration which gives 80% larval mortality) Spodoptera littoralis ([7]; larval feeding/contact activity, mortality only, test as in B9): 0.8 ppm
CCS(=O)(=O)c1cc(-c2ccc(Cl)cc2)sc1-c1nc2cc(SC(F)(F)F)ncc2n1C [Example P-15]	≥ 80	≥ 80	≥ 80	≥ 80	≥ 80	≥ 80	≥ 80	≥ 80	≥ 80		
CCSc1cc(I)sc1-c1nc2cc(C(F)(F)F)ncc2n1C [Example I-12, 2-(3-ethylsulfanyl-5-iodo-2-thienyl)-3-methyl-6-(trifluoromethyl)imidazo[4,5-c]pyridine]										61 to 63	
CCS(=O)(=O)c1nc(-n2ccc(C(F)(F)F)n2)sc1-c1nc2cc(C(F)(F)F)ncc2n1C [Example P-10, 4-ethylsulfonyl-5-[3-methyl-6-(trifluoromethyl)imidazo[4,5-c]pyridin-2-yl]-2-[3-(trifluoromethyl)pyrazol-1-yl]thiazole]	≥ 80	≥ 80	≥ 80	≥ 80	≥ 80		≥ 80	≥ 80	≥ 80		
CCSc1nc(-c2ncccn2)sc1-c1nc2cc(C(F)(F)F)ncc2n1C [Example P-11]										230 to 232	
CCS(=O)(=O)c1nc(Br)sc1-c1nc2cc(C(F)(F)F)ncc2n1C [Example I-4, 2-bromo-4-ethylsulfonyl-5-[3-methyl-6-(trifluoromethyl)imidazo[4,5-c]pyridin-2-yl]thiazole]										248 to 250	
CCS(=O)(=O)c1nc(-c2ncccn2)sc1-c1nc2cc(C(F)(F)F)ncc2n1C [Example P-9, 4-ethylsulfonyl-5-[3-methyl-6-(trifluoromethyl)imidazo[4,5-c]pyridin-2-yl]-2-pyrimidin-2-yl-thiazole]											mortality at 24 ppm [10]: ≥ 80%
CCS(=O)(=O)c1nc(-c2ccc(Cl)cc2)sc1-c1nc2cc(C(F)(F)F)ncc2n1C [Example P-4, 2-(4-chlorophenyl)-4-ethylsulfonyl-5-[3-methyl-6-(trifluoromethyl)imidazo[4,5-c]pyridin-2-yl]thiazole]	≥ 80	≥ 80	≥ 80	≥ 80	≥ 80	≥ 80	≥ 80	≥ 80			
CCS(=O)(=O)c1ncsc1-c1nc2cc(C(F)(F)F)ncc2n1C [Example I-2]										169 to 171	
CCSc1cc(-c2ccc(Cl)cc2)sc1-c1nc2cc(C(F)(F)F)nnc2n1C [Example P-17, 6-[5-(4-chlorophenyl)-3-ethylsulfanyl-2-thienyl]-7-methyl-3-(trifluoromethyl)imidazo[4,5-c]pyridazine]										205 to 207	
CCS(=O)(=O)c1cc(-c2ccc(Cl)cc2)sc1-c1nc2cc(C(F)(F)F)ncc2n1C [Example P-5, 2-[5-(4-chlorophenyl)-3-ethylsulfonyl-2-thienyl]-3-methyl-6-(trifluoromethyl)imidazo[4,5-c]pyridine]	≥ 80	≥ 80	≥ 80	≥ 80	≥ 80	≥ 80	≥ 80	≥ 80	≥ 80		
CCS(=O)(=O)c1cc(I)sc1-c1nc2cc(C(F)(F)F)nnc2n1C [Example I-6, 6-(3-ethylsulfonyl-5-iodo-2-thienyl)-7-methyl-3-(trifluoromethyl)imidazo[4,5-c]pyridazine]		≥ 80				≥ 80	≥ 80	≥ 80			
